According to PubChem BioAssay (NCI):
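A five-concentration, 48-hour dose response in 96-well plates underlies each endpoint, interpolated linearly between surrounding concentrations. Abbreviation: GI50, concentration required for 50% inhibition of growth. The concentration for full growth arrest is given as TGI.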

Experiments:
Assay in all cases: DTP human tumour cell line panel, 48 h
[1] = test system: MCF7 breast
[2] = test system: MOLT-4 leukemia
[3] = test system: BT-549 breast
[4] = test system: OVCAR-3 ovarian
[5] = test system: CCRF-CEM leukemia
[6] = test system: IGROV1 ovarian
[7] = test system: KM12 colon
[8] = test system: RXF 393 renal
[9] = test system: TK-10 renal
[10] = test system: NCI-H460 lung
[11] = test system: SN12C renal
[12] = test system: UACC-257 melanoma
[13] = test system: HOP-62 NSCLC
[14] = test system: CAKI-1 renal
[15] = test system: HOP-92 NSCLC
[16] = test system: SNB-75 CNS
[17] = test system: EKVX NSCLC
[18] = test system: SF-539 CNS
[19] = test system: UO-31 renal
[20] = test system: 786-0 renal
[21] = test system: HL-60(TB) leukemia
[22] = test system: A549 NSCLC
[23] = test system: HT29 colon
[24] = test system: COLO 205 colon
[25] = test system: SF-268 CNS
[26] = test system: U251 CNS
[27] = test system: K-562 leukemia
[28] = test system: SK-OV-3 ovarian
[29] = test system: HCT-116 colon
[30] = test system: HCC-2998 colon
[31] = test system: SF-295 CNS
[32] = test system: LOX IMVI melanoma
[33] = test system: MALME-3M melanoma
[34] = test system: RPMI-8226 leukemia
[35] = test system: OVCAR-5 ovarian
[36] = test system: SR leukemia
[37] = test system: MDA-MB-231 breast
[38] = test system: T-47D breast
[39] = test system: HCT-15 colon
[40] = test system: MDA-MB-435
[41] = test system: SNB-19 CNS
[42] = test system: M14 melanoma
[43] = test system: SW-620 colon
[44] = test system: DU-145 prostate
[45] = test system: ACHN renal
[46] = test system: SK-MEL-2 melanoma
[47] = test system: HS 578T breast
[48] = test system: NCI/ADR-RES ovarian
[49] = test system: OVCAR-8 ovarian
[50] = test system: PC-3 prostate
[51] = test system: NCI-H23 lung
[52] = test system: A498 renal
[53] = test system: SK-MEL-28 melanoma
[54] = test system: SK-MEL-5 melanoma
[55] = test system: OVCAR-4 ovarian
[56] = test system: NCI-H226 lung
[57] = test system: UACC-62 melanoma

NC(=O)C(Br)CBr (stereo not drawn)
GI50 [1]: 2180 nM
TGI [1]: 11.5 µM
GI50 [2]: 1420 nM
TGI [2]: 4.15 µM
GI50 [3]: 2390 nM
TGI [3]: 7.4 µM
GI50 [4]: 1480 nM
TGI [4]: 2830 nM
GI50 [5]: 1050 nM
TGI [5]: 6.93 µM
GI50 [6]: 1590 nM
TGI [6]: 4.78 µM
GI50 [7]: 7.63 µM
TGI [7]: 21 µM
GI50 [8]: 1270 nM
TGI [8]: 2700 nM
GI50 [9]: 2240 nM
TGI [9]: 6.33 µM
GI50 [10]: 3.56 µM
TGI [10]: 13.5 µM
GI50 [11]: 3.93 µM
TGI [11]: 20.6 µM
GI50 [12]: 1640 nM
TGI [12]: 3.27 µM
GI50 [13]: 18.4 µM
TGI [13]: 43.5 µM
GI50 [14]: 472 nM
TGI [14]: 1160 nM
GI50 [15]: 1390 nM
TGI [15]: 3.1 µM
GI50 [16]: 5.3 µM
TGI [16]: 19.9 µM
GI50 [17]: 1900 nM
TGI [17]: 4.92 µM
GI50 [18]: 3.01 µM
TGI [18]: 10.3 µM
GI50 [19]: 2550 nM
TGI [19]: 12.7 µM
GI50 [20]: 5.65 µM
TGI [20]: 16.1 µM
GI50 [21]: 728 nM
TGI [21]: 3.05 µM
GI50 [22]: 3.71 µM
TGI [22]: 10.6 µM
GI50 [23]: 1590 nM
TGI [23]: 9.42 µM
GI50 [24]: 1030 nM
TGI [24]: 2560 nM
GI50 [25]: 2650 nM
TGI [25]: 8.29 µM
GI50 [26]: 3.73 µM
TGI [26]: 14.7 µM
GI50 [27]: 1380 nM
TGI [27]: 5.29 µM
GI50 [28]: 12 µM
TGI [28]: 25.1 µM
GI50 [29]: 1300 nM
TGI [29]: 2560 nM
GI50 [30]: 2180 nM
TGI [30]: 4.78 µM
GI50 [31]: 14.7 µM
TGI [31]: 35.2 µM
GI50 [32]: 1980 nM
TGI [32]: 5.93 µM
GI50 [33]: 1910 nM
TGI [33]: 4.53 µM
GI50 [34]: 2820 nM
TGI [34]: 11.9 µM
GI50 [35]: 5.73 µM
TGI [35]: 13.7 µM
GI50 [36]: 394 nM
TGI [36]: 2560 nM
GI50 [37]: 2300 nM
TGI [37]: 4.76 µM
GI50 [38]: 1760 nM
TGI [38]: 6.4 µM
GI50 [39]: 1460 nM
TGI [39]: 3.39 µM
GI50 [40]: 1740 nM
TGI [40]: 4.33 µM
GI50 [41]: 15.5 µM
TGI [41]: 29.6 µM
GI50 [42]: 1630 nM
TGI [42]: 3.02 µM
GI50 [43]: 1290 nM
TGI [43]: 2790 nM
GI50 [44]: 2260 nM
TGI [44]: 5.72 µM
GI50 [45]: 816 nM
TGI [45]: 2180 nM
GI50 [46]: 2260 nM
GI50 [47]: 2860 nM
TGI [47]: 14.3 µM
GI50 [48]: 2930 nM
TGI [48]: > 24.1 µM
GI50 [49]: 1800 nM
TGI [49]: 4.44 µM
GI50 [50]: 2510 nM
TGI [50]: 11.7 µM
GI50 [51]: 1740 nM
TGI [51]: 3.42 µM
GI50 [52]: 15.3 µM
TGI [52]: 29 µM
GI50 [53]: 1690 nM
TGI [53]: 3.29 µM
GI50 [54]: 4.08 µM
TGI [54]: 14.3 µM
GI50 [55]: 1250 nM
TGI [55]: 2550 nM
GI50 [56]: 7.68 µM
TGI [56]: 27.1 µM
GI50 [57]: 2140 nM
TGI [57]: 6.07 µM
